We go through seven molecules from paper PMC5467316, “Antiviral Activity of Fridericia formosa (Bureau) L. G. Lohmann (Bignoniaceae) Extracts and Constituents” (Journal of Tropical Medicine, 2017).

The test system of one data set is Enterovirus 71. The arrangement: method as in PMID 24679044. As to conditions: in vitro; read-out: EC50 against Enterovirus 71; cited from earlier work.
In the next data set the test system is Vero cells. More on the design: method as in PMID 24679044. Particulars: cited from earlier work.
The test system of data set [1] is hepatitis B surface antigen (HBsAg). More on the design: method as in PMID 23576173. As to conditions: cited from earlier work.
The test system of data set [2] is hepatitis B antigen (HBeAg). More on the design: method as in PMID 23576173. Particulars: cited from earlier work.
Details of data set [3]: method as in PMID 14977449. Particulars: clinical tests; cited from earlier work.
Data set [4] deals with dengue virus type 2 (DENV-2). Nature of the data set: microbe, parasite or virus in culture. It counts as cell-based. As to conditions: for antiviral activity against DENV-2 (in words): statement in text; for EC50: Dengue virus, DENV2, 72 h.
In another data set the test system is HSV-1. More on the design: method as in PMID 16350858. As to conditions: previously reported; read-out: EC50 against HSV-1; cited from earlier work.
Data set [5] has as its system murine encephalomyocarditis virus (EMCV). Format: cell-based. Particulars: statement in text.
Data set [6] in a line: Cytotoxicity assay (MTT), Vero cells. Format: cell-based. Particulars: African green monkey.
Data set [7] is described as follows: Cytotoxicity assay (MTT), LLCMK2 cells. It counts as cell-based. As to conditions: rhesus monkey.
Data set [8] deals with human herpes virus 1 (HSV-1). Nature of the data set: microbe, parasite or virus in culture. It counts as cell-based. As to conditions: for EC50: Human alphaherpesvirus 1, 48 h; for antiviral activity against HSV-1 (in words): statement in text.
The subject of data set [9] is vaccinia virus Western Reserve (VACV-WR). Nature of the data set: microbe, parasite or virus in culture. Format: cell-based. As to conditions: for EC50: Vaccinia virus Western Reserve, 48 h; for antiviral activity against VACV-WR (in words): statement in text.
The next data set relates to HIV-1 replication. More on the design: method as in PMID 24066838, PMID 21610656. Particulars: dose dependent manner; cited from earlier work.
Where [10] appears, read: read-out: HSV-1 EC50 (value in parentheses).
Where [11] appears, read: read-out: VACV-WR EC50 (value in parentheses), viral titer TCID50/mL 1.0 × 10^6 in 48 h, MTT, concentration in µM.
[12] abbreviates: read-out: VACV-WR EC50, viral titer TCID50/mL 1.0 × 10^6 in 48 h, MTT.

Like-named read-outs stand apart in the source and are kept apart here.

Broadly, the CC50 is the concentration at which the toxic effect on the cells reaches its halfway point. As for euxanthone, in the data set on Enterovirus 71, the EC50 is 12.2 µM. The CC50 in the data set on Vero cells was 36.6 µM.

On to `O=c1c2cc(O)ccc2oc2cc(O)c([C@@H]3O[C@H](CO)[C@@H](O)[C@H](O)[C@H]3O)c(O)c12` [2-C-β-D-glucopyranosyl-1,3,7-trihydroxyxanthone], for which the EC50 in [1] was 210 µM; in data set [2], 40 µM.

Turning to `O=c1c2c(O)cc(O)cc2oc2c(O)ccc(O)c12` [norbellidifolin], the EC50 in data set [1] is 770 µM; in data set [2], under 620 µM.

Take `O=c1cc(-c2ccccc2)oc2cc(O)cc(O)c12` [Chrysin (4), 5,7-Dihydroxy-2-phenyl-4H-1-benzopyran-4-one]: in data set [3], the “effect on testosterone levels in men (in words)” value is “no effect”. The “antiviral activity against DENV-2 (in words)” value in data set [4] is “did not inhibit the replication cycle”. In addition, the EC50 was 2.5 µM in the data set with HSV-1; over 100 µg/mL in data set [8] (read-out: HSV-1 EC50); 576 µM in data set [8] (setting [10]); 486 µM in data set [9] (setting [11]); over 100 µg/mL in data set [9] (setting [12]). In addition, the “antiviral activity against EMCV (in words)” value in data set [5] was “did not inhibit the replication cycle”. For the same molecule, the 50% cytotoxic concentration (CC50) in data set [6] and in data set [7] was over 500 µg/mL throughout. For the same molecule, the “antiviral activity against HSV-1 (in words)” value in [8] is on record as “low activity”. Besides, in data set [9], the “antiviral activity against VACV-WR (in words)” value is on record as “low activity”. Moreover, the “VACV-WR EC50” value in data set [9] (viral titer TCID50/mL 1.0 × 10^6 in 48 h, MTT) came out at 123.5 ± 10.5 µg/mL.

For the molecule `O=c1c2cc(O)c(O)cc2oc2cc(O)c([C@@H]3O[C@H](CO)[C@@H](O)[C@H](O)[C@H]3O)c(O)c12` [Mangiferin (1), 2-β-D-Glucopyranosyl-1,3,6,7-tetrahydroxy-9H-xanthen-9-one], the “inhibitory activity on HIV-1 replication (in words)” value in the data set on HIV-1 replication is listed as “good inhibitory activity”. In addition, the EC50 was 266 µg/mL in data set [4] (read-out: DENV-2 EC50); 629 µM in data set [4] (read-out: DENV-2 EC50 (value in parentheses)); 268 µg/mL in data set [8] (read-out: HSV-1 EC50); 635 µM in [8] (setting [10]); 432 µM in data set [9] (setting [11]); 183 ± 14.3 µg/mL in [9] (setting [12]). The “antiviral activity against DENV-2 (in words)” value in data set [4] is “low antiviral effect”; in [4] (listed as mangiferin), “practically inactive”. Also, the results for the “antiviral activity against EMCV (in words)” value in data set [5] and in data set [5] (listed as mangiferin) were “low antiviral effect” and “practically inactive”, respectively. In addition, the CC50 in data set [6] and in data set [7] was over 500 µg/mL throughout. Besides, the figures for the “antiviral activity against HSV-1 (in words)” value in [8] and in data set [8] (listed as mangiferin) were “low antiviral effect” and “practically inactive”, respectively. The figures for the “antiviral activity against VACV-WR (in words)” value in data set [9] and in data set [9] (listed as mangiferin) were “low antiviral effect” and “practically inactive”, respectively.

Turning to `COc1cc(O)c2c(=O)c3c(O)ccc(O)c3oc2c1` [1,5,8-trihydroxy-3-methoxyxanthone], the results for the EC50 in data set [1] and in data set [2] were over 980 µM and 350 µM, respectively.

As for `Nc1nc2c(ncn2COCCO)c(=O)[nH]1` [Acyclovir, reference compound], the CC50 was over 1000 µg/mL in data set [6] (MTT, exposure 48 and 72 h, read-out: Vero CC50); over 1000 µg/mL in data set [7] (MTT, exposure 48 and 72 h, read-out: LLCMK2 CC50).
